A word on the CC50: it is the concentration at which the toxic effect on the cells reaches its halfway point.

Series [1] can be described thus: Induction of singlet oxygen generation in acetonitrile irradiated with blue light assessed as singlet oxygen quantum yield at 30 uM using ABDA by UV spectrophotometry. The series is classed as functional.
Series [2] deals with HeLa. Nature of the series: Photodynamic cytotoxicity in human HeLa cells assessed as reduction in cell viability incubated in blue light for 5 mins every 1.5 hrs for 8 repeated cycles further incubation under dark for 24 hrs by MTT assay. The series is classed as functional. The following applies: light or radiation study. Background: Tetrazolium dyes change colour on reduction, which living cells bring about.

Series [3] in a line: Induction of singlet oxygen generation in water irradiated with blue light assessed as singlet oxygen quantum yield at 30 uM using ABDA by UV spectrophotometry. The class given is functional.
Series [4] in a line: Photostability in acetonitrile assessed as decrease in absorbance of pyridone moiety at 50 uM irradiated with light for 2.5 hrs by UV spectrophotometry.
The test system of series [5] is HeLa. Nature of the series: Induction of ROS generation in human HeLa cells irradiated with blue light at 1 uM incubated for 30 mins by DCFH-DA dye-based confocal microscopic analysis. The class given is functional, cell-based.
The test system of series [6] is HeLa. Nature of the series: Induction of ROS generation in human HeLa cells under dark condition at 1 uM incubated for 30 mins at 37 degC by DCFH-DA dye-based confocal microscopic analysis. The series is classed as cell-based. The following applies: 0.5 h.
The test system of series [7] is HeLa. Nature of the series: Induction of ROS generation in human HeLa cells irradiated with blue light at 1 uM incubated for 30 mins in presence of sodium azide by DCFH-DA dye-based confocal microscopic analysis. The series is classed as functional, cell-based.
Series [8] relates to HeLa. In words: Induction of apoptosis in human HeLa cells at 1 uM incubated for 3 hrs irradiated with blue light by DAPI-Annexin V-PE staining based confocal microscopic analysis. The class given is functional, cell-based.
The test system of series [9] is HeLa. Nature of the series: Induction of apoptosis in human HeLa cells at 1 uM incubated for 3 hrs irradiated with blue light in presence of sodium azide by DAPI-Annexin V-PE staining based confocal microscopic analysis. The class given is functional, cell-based.
Series [10] is described as follows: Photostability in acetonitrile assessed as PPN-EPO formation at 50 uM irradiated with light for 2.5 hrs by UV spectrophotometry.
Series [11] can be described thus: Photostability in acetonitrile assessed as singlet oxygen formation by measuring pyridone moiety band at 50 uM at 37 degC irradiated with light for 2.5 hrs by UV spectrophotometry.
A short description of series [12]: Induction of singlet oxygen generation at 50 uM under irradiation incubated for 15 mins by 1H-NMR spectroscopy. The series is classed as functional.
A short description of series [13]: Induction of singlet oxygen generation at 50 uM under blue light irradiation at 60 degC by ABDA based singlet oxygen trap assay. The class given is functional.
Series [14] can be described thus: Induction of singlet oxygen generation at 50 uM under blue light irradiation at 25 degC by ABDA based singlet oxygen trap assay. The series is classed as functional.
Series [15] is described as follows: Induction of singlet oxygen generation at 50 uM under dark condition at 37 degC by ABDA based singlet oxygen trap assay. The series is classed as functional.
Series [16] in a line: Induction of singlet oxygen generation at 50 uM under irradiation at 20 degC for 5 mins and dark at 37 degC fro 30 mins for several cycles by ABDA based singlet oxygen trap assay. The series is classed as functional.

Active and inactive are the calls of the source. No cut-off for these calls is given here.

As to `O=C1C(c2ccc(CN3C(=O)C4C=CC3OO4)cc2)=Cc2cccc3cccc1c23` (centres undefined), the Activity in series [1] is 0.71; in series [3], 0.16. Further, the CC50 in series [2] was determined as 71.5 nM.
In the case of `O=C1C(c2ccc(Cn3ccccc3=O)cc2)=Cc2cccc3cccc1c23`, the Activity in [1] was 0.64; in series [6], “Non-Toxic”; in [3] it was 0.12. The Stability result in series [4] is “Unstable”; in [10] it was “Unstable”; in [11], “Stable”. The result in series [5], in [7], in series [8], in [12], in series [13] and in [15] was Active. Also, in [16], the outcome was Active. Further, the outcome in series [9] and in series [14] was inactive. For the same compound, in series [2], the CC50 is 26.5 nM.

The values above are taken from ChEMBL document CHEMBL4340548, “Pyridone-containing phenalenone-based photosensitizer working both under light and in the dark for photodynamic therapy” (Bioorg Med Chem, 2019).
